Experimental data: PMC8247886, “Getting a Grip on the Undrugged: Targeting β‐Catenin with Fragment‐Based Methods” (Chemmedchem, 2021)

Assays:
β-catenin141–305 [1] = target: T1, β-catenin141–305 (Homo sapiens, UniProt P35222); assay: 2D 15N NMR (TROSY/HSQC/HMQC) detected binding and Kd titration
T1 construct: Amino acids 141-305 of uniprot ID: P35222; GST (cleaved yes); made in house; host or cells: E. coli BL21 (DE3)
T1 sequence (P35222 141-305): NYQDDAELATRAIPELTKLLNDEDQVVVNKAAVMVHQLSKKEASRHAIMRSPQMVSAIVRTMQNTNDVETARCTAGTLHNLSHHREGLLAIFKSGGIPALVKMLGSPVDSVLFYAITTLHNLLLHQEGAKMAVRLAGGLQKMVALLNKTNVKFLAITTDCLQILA
Method: The construct for expression of β-catenin141-305 (Amino acids 141-305 of uniprot ID: P35222) is based on the previously reported R4 construct1. The plasmid was used to transform E. coli, strain BL21 (DE3) cells (Invitrogen). For protein expression, an overnight culture in LB-medium supplemented ampicillin (100 µg/mL) at 37 °C was prepared and diluted the next day with fresh 2xYT-medium. At OD600 of 0.8 the culture was cooled down to 18 °C and after induction with 0.5 mM IPTG incubated for 20 h. Cell pellets obtained by centrifugation at 5000 rpm were stored at - 20 °C. Cells were solubilized in buffer A (2X Dulbecco’s PBS; 500 mM NaCl; 10 % Glycerol; 0.5 mM TCEP; cOmplete™ Protease Inhibitor Cocktail; pH 7.4) and disrupted by sonication (Sonopuls, Bandelin) on ice. After 30 min the sonicated lysate was clarified by centrifugation (50 min, 13500 rpm, 4 °C). The supernatant was mixed with 20 mL Glutathione Sepharose® 4B resin (GE Healthcare) slurry, washed in lysis buffer, and steered for 3 hours on ice. The beads were spun down, loaded into a XK16 column cartridge and washed with lysis buffer until baseline. The protein was eluted with buffer B (2X Dulbecco’s PBS; 500 mM NaCl; 10 % Glycerol; 0.5 mM TCEP;; pH 7.4) + 25 mM L-Glutathione reduced. After cleavage with 2000 units Human Alpha Thrombin (Enzyme Research Laboratories) at room temperature overnight, the protein was collected in the flow-through fraction of a second GST run (GSTrap HP 5 mL column; GE Healthcare) using buffer B. The flow-through was concentrated by centrifugation using an Amicon© Ultra 15 mL Centrifugal Filter (Merck Millipore) and loaded onto a HiLoad Superdex S75 column (GE Healthcare) equilibrated with 50 mM Tris; 200 mM NaCl; 3 mM DTT; pH 8.
Fractions were analyzed by SDS-PAGE and fractions containing the desired protein were pooled and concentrated with an Amicon© Ultra 15 mL Centrifugal Filter (Merck Millipore). […]
For confirmation of hits obtained from STD-NMR by 2D 15N TROSY NMR4 a Bruker Avance III 600 MHz instrument with a 5 mm cryo-TCI probe and z-gradient was used. The experimental set up (automated sample preparation and transfer into the magnet by a Tecan Freedom Evo pipetting robot and a Bruker Sample Rail system, respectively) was identical. Each sample contained 25 uM 15N labeled β-catenin141-305 25 mM sodium phosphate, 150 mM sodium chloride, 100 mM sodium nitrate, 0.5mM TCEP pH 6.8 in H2O at 25 °C and 8% (v/v) D2O. The protein was incubated with 500 uM fragment in a 2.5 mm NMR tube at 25 °C and a d6DMSO concentration of 1%. Spectra were recorded with 48 transients and 64 data points in the indirect dimension. Manual comparison of the spectrum in the presence of the to be tested fragment with the DMSO reference spectrum reveal either line broadening or chemical shift perturbation of cross peaks. Both effects are indicative for compound binding. All processing and analysis was done with the Topspin 2.1 software (Bruker BioSpin). Further spectral comparisons were performed with the FELIX software package (Felix NMR Inc.) to combine manual with automated analysis5. […]
700MHz spectrometer equipped with a cryogenically cooled 5mm TCI probe. […]
The
WaterLOGSY pulse sequence was used as described before7. Selective water inversion was achieved with a double excitation sculpting element employing water selective Gaussian refocusing pulses (inversion bandwidth of 0.5 ppm, pulse length of 7.5 ms). The number of scans was set to 2048. Sample concentrations were 0.5 mM ligand and 0.25–10 µM β-catenin135-663 in […]

[2] = Solubility in NMR buffer at pH 7.5 by quantitative NMR (maleic acid external standard); type: physicochemical; conditions: NMR buffer (Tris/NaCl with 2% DMSO-d6), aqueous buffer, kinetic from dmso stock; NMR buffer pH 7.5; intended concentration 500 or 2000 μM; read-out: Solub. pH 7.5
Method: buffer (Tris 25 mM, pH 7.5, NaCl 150 mM) containing 2% DMSO-d6. […]
Solubility of compounds was determined in NMR buffer at pH 7.5 (see above) by integrating the
signal of 250 µM maleic acid as an external standard relative to the integrals of the ligands. If the
intended concentrations of 500 µM respective 2000 µM were reached the value is reported as >
500 µM or > 2000 µM. […]

β-catenin141–305 [3] = target: T1, β-catenin141–305; assay: STD-NMR fragment screening in mixtures; type: binding; conditions: fragment mixture, 250 µM each, 10 µM protein
Excerpt: labelling the protein was expressed in Overnight Express™ Autoinduction NMR Medium - ¹⁵N - Novagen (Merck Millipore) according to the technical description and purified as described for the unlabeled protein. The protein of β-catenin135-663 (Amino acids 135-663 of uniprot ID: P35222) and the β-catenin binding domain of human BCL9 (Amino acids 347–392 of uniprot ID: O00512, containing an additional n-terminal glycine) was purchased (Proteros Biostructures GmbH).
Ligand based 1D 1H experiments were carried out on a Bruker Avance II 600 MHz spectrometer with a 5 mm cryo-QCI probe and z-gradients. […] The on and off resonance spectra were recorded in an interleaved fashion to minimize subtraction artifacts. […] After acquisition, the difference spectrum was calculated by subtracting the two individual spectra. […] These were readily assigned by comparing the signals with the respective pre-recorded reference spectra of the individual compounds present in the mixture. […]
For confirmation of hits obtained from STD-NMR by 2D 15N TROSY NMR4 a Bruker Avance III 600 MHz instrument with a 5 mm cryo-TCI probe and z-gradient was used. […] Spectra were recorded with 48 transients and 64 data points in the indirect dimension. […]
1D, GEM by STD and WaterLOGSY experiments were recorded at 298 K on an Avance III 700MHz spectrometer equipped with a cryogenically cooled 5mm TCI probe. […]

β-catenin141–305 [4] = target: T1, β-catenin141–305; assay: Surface Plasmon Resonance (SPR) Kd determination; type: binding; conditions: positive control, n=3; 1:1 binding model
Method: Surface Plasmon Resonance (SPR)
A Biacore T200 instrument was used for SPR analysis, β-catenin141-305 was pre-diluted to a concentration of 0.1 mg/mL with 10 mM sodium acetate buffer, pH 5.0 and immobilized at a density of 6000 –7000 response units on flow cell 2 of a Biacore CM5 chip. Carbonic anhydraseII served as a reference protein on flow cell 3 and flow cell 1 was kept blank and used as the reference surface. A mixture of 20 mM Tris, pH 7.5, 150 mM NaCl, 0.5 mM TCEP, 0.005% Tween20, 2 % dimethyl sulfoxide was used as assay buffer. After pre -equilibration of the chip with 10 blank injections, the Kd measurements were performed by injecting a concentration series of analyte (9 concentrations, 1:1 dilutions). BCL9 347-392 served as a positive control. K d values were determined by global fitting of the steady-state response for each of the 9 concentrations to a 1:1 interaction model using the Biacore T200 evaluation software. Each compound was injected three times and […]
average Kd values were calculated from the repeats. The reported data are the mean values of three independent experiments ± standard deviations. […]
Glutamax Supplement (Thermo Fisher Scientific, 35050061) with 10% FCS (GE Healthcare, SH30071.03). Transfections were performed with Lipofectamine LTX Reagent (Thermo Fisher, 15338100) according the manufacturer’s instructions.

β-catenin141–305 [5] = target: T1, β-catenin141–305; assay: Microscale Thermophoresis (MST) screening and Kd determination; type: binding; conditions: assay validation; PBS pH 6.8, 100 mM NaNO3, 0.5 mM TCEP, 0.05% Tween-20, 25 °C
Method: buffer (Tris 25 mM, pH 7.5, NaCl 150 mM) containing 2% DMSO-d6. A stock solution of β-catenin135-663 (12.5 µM) was dialyzed before into Tris 25 mM pH 7.6 NaCl 150 mM and centrifuged at 4° C at 15000 rpm for 20 minutes. Intensity ratios Ilogsy/I1D are derived from scaling of the 1D intensity to the corresponding LOGSY intensity. STD GEMs were acquired with 1.5 µM […]
2.0; and 3.0 seconds for the saturation time build up curves to determine the initial rate constants2.
STD experiments were acquired with on and off resonance saturation at +0.1ppm and -40ppm respectively with 1048 scans each.
Solubility of compounds was determined in NMR buffer at pH 7.5 (see above) by integrating the signal of 250 µM maleic acid as an external standard relative to the integrals of the ligands. If the intended concentrations of 500 µM respective 2000 µM were reached the value is reported as > 500 µM or > 2000 µM. Compound 3 only reached a concentration of 1000 µM according to the QNMR experiment even though 2000 µM was intended, it’s solubility is therefore reported as […]
Microscale Thermophoresis.
Fluorescence labeling of β-catenin141-305 with the NT647 dye was achieved using the Monolith NT.115 Protein Labeling Kit RED-NHS according to the manufacturer’s protocol (NanoTemper Technologies, Munich, Germany). The BCL9 peptide was used as positive control for assay development to achieve a reliably detectable change in the thermophoretic mobility ( ΔFnorm). […]
Final assay conditions were 50 nM NT647 labeled β-catenin141-305 in PBS pH 6.8 supplemented with 100 mM NaNO3, 0.5 mM TCEP and 0.05% Tween-20 at 25° C. Fragment screening detected […]
by MST was carried out as previously described8,9. […] Manual inspection of all MST traces was used to reject non-standard traces stemming from protein aggregation, bleaching, or fluorescence quenching. ΔFnorm values (ΔFnorm=Fhot/Fcold) were calculated and the mean values of the duplicates were compared to the mean values of the DMSO negative control. […] Protein integrity over the entire FBS was monitored by the BCL9 peptide positive control. […]

β-catenin = target: β-catenin; set-up: method as in PMID 17052462; conditions: previously determined binding affinity; read-out: ITC Kd; cited from earlier work

| chemical shift perturbations (CSPs) in 2D 15N NMR (β-catenin141–305 [1]; 500 μM compound) | Kd (β-catenin141–305 [1]; 15N NMR titration, single titration, mean of curves of selected cross peaks ± SD, read-out: HSQC Kd) | solubility [2] | STD-NMR binding (β-catenin141–305 [3]) | Kd (β-catenin141–305 [4]) | Kd (β-catenin141–305 [5]) | Compound | Kd (β-catenin) |
| --- | --- | --- | --- | --- | --- | --- | --- |
| minor chemical shift perturbation | > 10000 µM | > 500 µM | unambiguously identified as binders |  |  | O=C1NCCNc2c1cccc2[N+](=O)[O-] [Compound 1] |  |
|  |  |  |  | 0.225 µM | 0.36 µM | BCL9^347−392: β-catenin binding domain of human BCL9 (amino acids 347–392, additional N-terminal glycine), positive control (NPDGLSQEQLEHRERSLQTLRDIQRMLFPDEKEFTGAQSGGPQQNP; additional N-terminal glycine; UniProt O00512 347-392, looked up, fragment) [reference compound] | 0.54 µM |
